This is an account of results in BindingDB's records for doi:10.1021/jm801420y (St. Jude Children'S Research Hospital, 2009).

One test addresses T1, Zinc finger protein GLI1 (Homo sapiens, UniProt P08151).
T1 sequence (P08151 whole entry): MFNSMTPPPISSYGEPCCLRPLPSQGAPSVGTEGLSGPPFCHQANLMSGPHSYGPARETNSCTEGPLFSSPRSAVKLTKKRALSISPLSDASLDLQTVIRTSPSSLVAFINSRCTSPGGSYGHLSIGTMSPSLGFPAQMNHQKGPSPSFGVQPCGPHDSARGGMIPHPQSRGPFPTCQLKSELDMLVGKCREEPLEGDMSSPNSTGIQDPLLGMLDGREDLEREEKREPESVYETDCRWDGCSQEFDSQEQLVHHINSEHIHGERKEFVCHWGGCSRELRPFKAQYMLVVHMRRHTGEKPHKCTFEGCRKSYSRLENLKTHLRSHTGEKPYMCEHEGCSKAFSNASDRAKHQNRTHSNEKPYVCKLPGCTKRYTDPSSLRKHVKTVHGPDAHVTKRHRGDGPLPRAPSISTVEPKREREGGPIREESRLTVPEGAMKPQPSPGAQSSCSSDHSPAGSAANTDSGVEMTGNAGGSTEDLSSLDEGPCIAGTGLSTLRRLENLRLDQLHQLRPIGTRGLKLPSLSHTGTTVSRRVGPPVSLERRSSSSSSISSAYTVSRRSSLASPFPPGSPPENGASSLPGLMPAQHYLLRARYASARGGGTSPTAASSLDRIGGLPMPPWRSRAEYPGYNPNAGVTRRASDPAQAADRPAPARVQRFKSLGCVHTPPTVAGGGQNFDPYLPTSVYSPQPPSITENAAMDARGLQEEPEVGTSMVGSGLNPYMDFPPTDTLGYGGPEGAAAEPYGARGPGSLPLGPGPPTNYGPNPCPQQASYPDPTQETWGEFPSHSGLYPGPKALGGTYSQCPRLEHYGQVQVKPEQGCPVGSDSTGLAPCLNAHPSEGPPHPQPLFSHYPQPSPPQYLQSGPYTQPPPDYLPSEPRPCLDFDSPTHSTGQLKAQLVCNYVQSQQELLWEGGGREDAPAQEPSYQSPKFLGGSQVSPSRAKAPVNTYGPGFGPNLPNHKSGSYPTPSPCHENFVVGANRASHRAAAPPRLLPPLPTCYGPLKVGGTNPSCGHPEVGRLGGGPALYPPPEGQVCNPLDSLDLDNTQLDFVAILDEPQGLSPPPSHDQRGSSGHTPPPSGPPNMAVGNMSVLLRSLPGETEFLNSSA
Nature of the test: Inhibition of Gli1-mediated transcription expressed in human PANC1 cells.

The target of the next test is Zinc finger protein GLI2 (Homo sapiens, UniProt P10070). The test can be described thus: Inhibition of Gli2-mediated transcription expressed in human PANC1 cells.
Chain of Zinc finger protein GLI2 (P10070 whole entry): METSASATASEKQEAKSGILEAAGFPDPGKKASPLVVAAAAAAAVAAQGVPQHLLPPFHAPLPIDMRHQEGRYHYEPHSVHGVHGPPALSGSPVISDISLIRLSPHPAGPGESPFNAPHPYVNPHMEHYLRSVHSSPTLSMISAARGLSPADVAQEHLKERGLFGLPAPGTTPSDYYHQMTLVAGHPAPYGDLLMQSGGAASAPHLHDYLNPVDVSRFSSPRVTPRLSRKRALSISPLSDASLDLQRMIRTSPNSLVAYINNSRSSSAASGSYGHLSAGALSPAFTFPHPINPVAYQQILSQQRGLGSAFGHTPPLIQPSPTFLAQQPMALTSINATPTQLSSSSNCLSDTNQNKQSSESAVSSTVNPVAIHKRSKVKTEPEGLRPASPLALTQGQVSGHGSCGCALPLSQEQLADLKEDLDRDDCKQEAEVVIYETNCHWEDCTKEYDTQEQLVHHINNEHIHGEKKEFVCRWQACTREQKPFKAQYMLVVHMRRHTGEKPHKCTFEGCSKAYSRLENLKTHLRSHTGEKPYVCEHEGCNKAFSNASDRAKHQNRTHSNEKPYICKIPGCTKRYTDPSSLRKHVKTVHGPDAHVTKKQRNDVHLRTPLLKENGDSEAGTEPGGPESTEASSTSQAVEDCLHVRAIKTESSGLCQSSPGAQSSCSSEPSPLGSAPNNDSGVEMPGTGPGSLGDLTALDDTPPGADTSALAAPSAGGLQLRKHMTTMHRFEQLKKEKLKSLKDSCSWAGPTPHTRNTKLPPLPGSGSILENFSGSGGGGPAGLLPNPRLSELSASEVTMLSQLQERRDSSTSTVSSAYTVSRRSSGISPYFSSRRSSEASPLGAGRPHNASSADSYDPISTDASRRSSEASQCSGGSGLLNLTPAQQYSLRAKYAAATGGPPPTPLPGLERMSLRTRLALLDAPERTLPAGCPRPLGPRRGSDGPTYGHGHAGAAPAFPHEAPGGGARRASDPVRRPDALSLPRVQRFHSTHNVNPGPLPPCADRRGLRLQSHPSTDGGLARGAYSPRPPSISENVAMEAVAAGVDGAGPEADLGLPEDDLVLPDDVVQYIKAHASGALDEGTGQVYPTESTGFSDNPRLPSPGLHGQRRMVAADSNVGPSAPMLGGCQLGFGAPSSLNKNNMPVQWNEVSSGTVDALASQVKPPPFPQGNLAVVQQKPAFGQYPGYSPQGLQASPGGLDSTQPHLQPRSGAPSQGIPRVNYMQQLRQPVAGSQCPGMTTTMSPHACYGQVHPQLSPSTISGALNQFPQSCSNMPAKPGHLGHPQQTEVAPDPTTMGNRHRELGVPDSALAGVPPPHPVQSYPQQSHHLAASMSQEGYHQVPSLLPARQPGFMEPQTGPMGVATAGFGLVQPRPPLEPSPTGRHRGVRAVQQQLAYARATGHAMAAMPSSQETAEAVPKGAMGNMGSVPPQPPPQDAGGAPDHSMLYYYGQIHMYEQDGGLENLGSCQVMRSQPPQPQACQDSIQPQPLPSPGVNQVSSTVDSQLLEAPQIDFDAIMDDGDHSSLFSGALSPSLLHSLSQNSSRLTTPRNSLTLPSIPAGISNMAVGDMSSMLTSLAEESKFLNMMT
Test [1] addresses Sonic hedgehog protein (Mus musculus, UniProt Q62226). Nature of the test: Inhibition of SHH in mouse Shh Light2 cells by GLI-responsive firefly luciferase reporter gene assay.
A short description of test [2]: Inhibition of SHH-mediated mouse C3H10T1/2 cells differentiation into osteoblasts by alkaline phosphatase assay.
Test [3] deals with Sonic hedgehog protein (Homo sapiens, UniProt Q15465). The test can be described thus: Inhibition of lipid-modified (octylated) form of SHH expressed in mouse s12 cells by luciferase reporter gene assay.
Chain of Sonic hedgehog protein (Homo sapiens, UniProt Q15465) (Q15465 24-197 limits assumed): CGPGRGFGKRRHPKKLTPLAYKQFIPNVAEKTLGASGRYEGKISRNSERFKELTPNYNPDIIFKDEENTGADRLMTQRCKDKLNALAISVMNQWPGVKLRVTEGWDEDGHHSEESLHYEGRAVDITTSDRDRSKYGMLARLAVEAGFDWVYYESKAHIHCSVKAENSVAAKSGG

Structures are written as SMILES. Some results are limits rather than exact numbers.

Chain of Sonic hedgehog protein (Mus musculus, UniProt Q62226) (Q62226 25-198 limits assumed): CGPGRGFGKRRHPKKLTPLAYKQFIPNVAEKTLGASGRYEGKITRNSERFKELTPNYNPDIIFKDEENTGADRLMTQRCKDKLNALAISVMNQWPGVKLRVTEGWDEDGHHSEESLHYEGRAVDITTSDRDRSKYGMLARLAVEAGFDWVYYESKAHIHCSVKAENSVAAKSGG

Broadly, the IC50 is the concentration at which inhibition is half-maximal. A higher IC50 goes with weaker potency. As for `O=C1NCc2c1c1c3ccccc3[nH]c1c1[nH]c3ccccc3c21`, the figures for the half-maximal inhibitory concentration (IC50) on Zinc finger protein GLI1 and against Zinc finger protein GLI2 were 1800 nM and 2700 nM, respectively.

As a reminder, the EC50 is the concentration at which the effect is half-maximal. On to `CC1=C2C[C@H]3[C@@H](CC=C4C[C@@H](O)CC[C@@]43C)[C@@H]2CC[C@]12O[C@@H]1C[C@H](C)CN[C@H]1[C@H]2C`, for which the EC50 at Sonic hedgehog protein [1] was 500 nM.

As for `COc1ccc(-c2cc(C3CC3)nc(SCC(C)=O)c2C#N)cc1` [6-cyclopropyl-4-(4-methoxyphenyl)-2-(2-oxopropylthio)nicotinonitrile], the IC50 in test [2] was under 100 nM.

In test [2], `Cc1cccc(C)c1NC(=O)c1ccc(Nc2nc(-c3ccccc3)c3cccnc3n2)cc1` [N-(2,6-dimethylphenyl)-4-(4-phenylpyrido[2,3-d]pyrimidin-2-ylamino)benzamide] registered a concentration for half-maximal inhibition (IC50) of 3.6 nM.

The compound `CCCCCc1ccc(-c2ccc(/C=C/C(=O)N3CCCCC3)cc2)nc1` [(E)-3-(4-(5-pentylpyridin-2-yl)phenyl)-1-(piperidin-1-yl)prop-2-en-1-one] returned an IC50 in test [2] of 200 nM.

`Cc1cccc(C)c1NC(=O)c1ccc(Nc2nc(C3CC3)c3ccccc3n2)cc1` [4-(4-cyclopropylquinazolin-2-ylamino)-N-(2,6-dimethylphenyl)benzamide]: in test [2], the IC50 is 2.8 nM.

In the case of `C[C@]12C(=O)C=CCC1=CC[C@@H]1[C@@H]2CC[C@]2(O)C(=O)O[C@@]3(C)[C@H]4C[C@]5(C)[C@@H](CO[C@@]16O[C@@]32[C@H]5C6=O)C(=O)O4` [NSC-287088], the IC50 at Zinc finger protein GLI1 worked out at 620 nM.

Compound `COc1cccc(CN(C(=O)CC(C)(C)C)[C@H]2C[C@@H](C(=O)N3CCNCC3)N(Cc3ccc4c(c3)OCO4)C2)c1` [N-((3S,5S)-1-(benzo[d][1,3]dioxol-5-ylmethyl)-5-(piperazine-1-carbonyl)pyrrolidin-3-yl)-N-(3-methoxybenzyl)-3,3-dimethylbutanamide] came in with an IC50 at Sonic hedgehog protein [3] of 100 nM.

As for `Cc1nc2ccccn2c1-c1csc(NC(=O)c2ccc3ccccc3c2)n1` [N-(4-(2-methylimidazo[1,2-a]pyridin-3-yl)thiazol-2-yl)-2-naphthamide], the midpoint of inhibition against Sonic hedgehog protein [1], the IC50, lay at 100 nM.

In turn, `C[C@@]12C[C@H]3OC(=O)[C@@H]1CO[C@]14O[C@]5([C@H]2C1=O)[C@@](O)(CC[C@H]1[C@H]4C[C@H]2O[C@]24CC=CC(=O)[C@]14C)C(=O)O[C@@]35C` [PHYSALIN F] registered an IC50 on Zinc finger protein GLI1 of 660 nM.

With `c1cc(-c2sc(-c3ccncc3)c(-c3ccncc3)c2-c2ccncc2)ccn1` [4-(3,4,5-tri(pyridin-4-yl)thiophen-2-yl)pyridine], it took 5000 nM to reach half-maximal inhibition against Sonic hedgehog protein [1] (IC50).

Regarding `CN(C)c1ccccc1CN1CCCN(Cc2ccccc2N(C)C)C1c1ccncc1` [2-((3-(2-(dimethylamino)benzyl)-2-(pyridin-4-yl)-tetrahydropyrimidin-1(2H)-yl)methyl)-N,N-dimethylbenzenamine], half-maximal inhibition on Sonic hedgehog protein [1] (IC50) was put at 5000 nM.

As to `COc1ccc(Cl)cc1Nc1nc(-c2cccnc2)cs1` [N-(5-chloro-2-methoxyphenyl)-4-(pyridin-3-yl)thiazol-2-amine], the IC50 against Sonic hedgehog protein [1] was determined as 100 nM.

For `C/C1=C\CC(C)(C)/C=C/C(=O)/C(C)=C/CC1` [Zerumbone], the figures for the IC50 against Zinc finger protein GLI1 and on Zinc finger protein GLI2 were 7100 nM and 910 nM, respectively.

On to `CC1=C2C(=O)[C@H]3[C@@H](CC=C4C[C@@H](O)CC[C@@]43C)[C@@H]2CC[C@]12O[C@@H]1C[C@H](C)CN[C@H]1[C@H]2C` [5'-hydroxy-2',3,6,15'-tetramethyl-(1'S,2'R,2'R,3R,3aS,5'S,6S,7aR,10'S,11'S)-spiro[perhydrofuro[3,2-b]pyridine-2,14'-tetracyclo[8.7.0.02,7.011,16]heptadeca-7',15'-diene]-17'-one], for which the half-inhibitory concentration (IC50) at Sonic hedgehog protein [3] worked out at 500 nM.

With `CS(=O)(=O)c1ccc(C(=O)Nc2ccc(Cl)c(-c3ccccn3)c2)c(Cl)c1` [2-chloro-N-(4-chloro-3-(pyridin-2-yl)phenyl)-4-(methylsulfonyl)benzamide], at Sonic hedgehog protein [1], half-maximal inhibition (IC50) required 3 nM.

Compound `CC(=O)c1cccc(Nc2nc(-c3ccccc3)cs2)c1` [1-(3-(4-phenylthiazol-2-ylamino)phenyl)ethanone] registered an IC50 at Sonic hedgehog protein [1] of 100 nM.

In the case of `Cc1nn(-c2ccccc2)c(C)c1C=NN1CCN(Cc2ccccc2)CC1` [4-benzyl-N-((3,5-dimethyl-1-phenyl-1H-pyrazol-4-yl)methylene)piperazin-1-amine], in test [2], the half-inhibitory concentration (IC50) was under 20 nM.

Take `CCOc1ccc(Nc2nc(-c3c(C)nc4ccccn34)cs2)cc1` [N-(4-ethoxyphenyl)-4-(2-methylimidazo[1,2-a]pyridin-3-yl)thiazol-2-amine]: the midpoint of inhibition against Sonic hedgehog protein [1], the IC50, lay at 30 nM.

Compound `COc1cc(OC)cc(C(=O)Nc2ccc(Cl)c(-c3nc4ccc(N(C)C)cc4[nH]3)c2)c1` [N-(4-chloro-3-(5-(dimethylamino)-1H-benzo[d]imidazol-2-yl)phenyl)-3,5-dimethoxybenzamide] gave an EC50 on Sonic hedgehog protein [1] of 40 nM.

`CCOc1cc(C(=O)Nc2ccc(Cl)c(-c3nc4ccccc4[nH]3)c2)cc(OCC)c1OCC` [N-(3-(1H-Benzo[d]imidazol-2-yl)-4-chlorophenyl)-3,4,5-triethoxybenzamide] gave an IC50 in test [2] of 30 nM.

Take `CN1CCCc2ccc(NC(=O)c3ccc(Nc4nc(-c5ccccc5)c5ccccc5n4)cc3)cc21` [N-(1-methyl-1,2,3,4-tetrahydroquinolin-7-yl)-4-(4-phenylquinazolin-2-ylamino)benzamide]: in test [2], inhibition was half-maximal at 5.8 nM (IC50).
